The values below are quoted from earlier work in patent publication US20040192587A9, “Zinc formulations as a prophylactic treatment for the common cold” (priority 2002, published 2004).

One data set has as its system common cold. The note with it: tablet with about 23 mg elemental zinc dissolved in the mouth every two hours during 12 to 16 waking hours; sixty-five humans; untreated group 10.8 days.
The subject of a further data set is rhinovirus common colds. The note with it: large prophylactic oral doses, as much as 2 grams per day.

With zinc gluconate, the duration of colds with common cold is reported as 3.9 days.

Consider `O=C1O[C@H]([C@@H](O)CO)C(O)=C1O` [vitamin C], for which the “frequency of acquisition of rhinovirus common colds or amount of virus shedding” value in the data set on rhinovirus common colds was “have not altered”.
